One experiment deals with MV-4-1 1 cells (MLL-AF4). The experiment can be described thus: Proliferation assay (spheroid-like growth, 8 d, live-cell imaging), MV-4-11. The format is cell-based, human. The note with it: Homo sapiens, MV4-11, 192 h, MV-4-11 cells, absolute IC50 from AUC of confluence, read-out: (3) Spheroid assay MV-4-11 (IC50 (μM)). The protocol: The anti-proliferative effect of menin/MLL protein/protein interaction inhibitor test compounds was assessed in human leukemia cell lines. The cell lines MV-4-1 1 and MOLM14 harbor MEL translocations and express the MEL fusion proteins MLL-AF4 and MLL-AF9, respectively, as well as the wildtype protein from the second allele. […] K562 was used as a control cell line containing two MLL wildtype alleles in order to exclude compounds that display general cytotoxic effects.
MV-4-1 1 and MOLM14 were cultured in RPMI-1640 (Sigma Aldrich) supplemented with 10% fetal bovine serum (HyClone), 2 mM L-glutamine (Sigma Aldrich) and 50 μg/ml gentamycin (Gibco). K562 were propagated in RPMI-1640 (Sigma Aldrich) supplemented with 20% fetal bovine serum (HyClone), 2 mM L-glutamine (Sigma Aldrich) and 50 μg/ml gentamycin (Gibco).
In order to assess the anti-proliferative effects, 1,500 MV-4-1 1, 300 MOLM14 or 750 K562 cells were seeded in 200 μl media per well in 96-well round bottom, ultra-low attachment plates (Costar, catalogue number 7007). Cell seeding numbers were chosen based on growth curves to ensure linear growth throughout the experiment. Test compounds were added at different concentrations and the DMSO content was normalized to 0.3%>. Cells were incubated for 8d at 37° C. and 5% C02. Spheroid like growth was monitored in real-time by live-cell imaging (IncuCyteZOOM, Essenbio, 4× objective) acquiring one image every four hours for 8d. Confluence (%) as a measure of spheroid size was determined using an integrated analysis tool.
In order to determine the cumulative effect of the test compounds over time, the area under the curve (AUC) in a plot of confluence against time was calculated. Confluence at the beginning of the experiment (t=0) was used as baseline for the AUC calculation.
Absolute IC50 values were calculated according to the following procedure: % Control=(AUC sample/AUC control)*100 AUC control=mean AUC of control values(cells without compound/DMSO as vehicle control)
A non-linear curve fit was applied using the least squares (ordinary) fit method to the plot of % control versus compound concentration. Based on this, the absolute IC50 value (half maximal inhibitory concentration of the test compound causing an anti-proliferative effect of 50% relative to the vehicle control) was calculated.

The target in experiment [1] is T1, terbium chelate-labeled menin / FITC-MBM1 peptide (Menin/MLL) (Homo sapiens, UniProt O00255, T541A).
T1 construct: Menin (a. a. l-610-6×his tag) was labeled with terbium cryptate as follows
T1 sequence (O00255 with tags, fused parts or gaps T541A): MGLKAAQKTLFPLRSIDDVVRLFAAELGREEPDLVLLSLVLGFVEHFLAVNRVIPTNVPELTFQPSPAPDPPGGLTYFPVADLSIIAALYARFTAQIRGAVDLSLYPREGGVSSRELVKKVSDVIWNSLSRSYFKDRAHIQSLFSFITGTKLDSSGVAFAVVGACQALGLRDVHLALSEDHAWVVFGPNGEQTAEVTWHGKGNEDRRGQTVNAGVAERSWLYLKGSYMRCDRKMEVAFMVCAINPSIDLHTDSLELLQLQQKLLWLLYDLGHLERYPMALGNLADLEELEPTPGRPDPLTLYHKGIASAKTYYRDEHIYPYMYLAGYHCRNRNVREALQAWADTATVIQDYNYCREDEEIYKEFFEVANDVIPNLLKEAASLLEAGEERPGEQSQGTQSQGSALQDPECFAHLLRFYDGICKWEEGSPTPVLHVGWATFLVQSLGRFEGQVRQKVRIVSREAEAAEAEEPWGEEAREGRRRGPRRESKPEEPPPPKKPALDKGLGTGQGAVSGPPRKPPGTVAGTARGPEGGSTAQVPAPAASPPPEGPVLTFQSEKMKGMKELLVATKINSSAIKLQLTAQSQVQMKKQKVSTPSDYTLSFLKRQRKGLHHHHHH
The experiment in a line: Menin/MLL homogenous time-resolved fluorescence (HTRF) assay. It is filed as binding. The note with it: read-out: (2) Menin HTRF assay (IC50 (nM)). Here is the method:
2) Menin/MLL Homogenous Time-Resolved Fluorescence (HTRF) Assay
To an untreated, white 384-well microtiter plate was added 40 nL 200× test compound in DMSO and 4 μL 2× terbium chelate-labeled menin (vide infra for preparation) in assay buffer (40 mM Tris .HCl, pH 7.5, 50 mM NaCl, 1 mM DTT and 0.05% Pluronic F-127). After incubation of test compound and terbium chelate-labeled menin for 5 min at ambient temperature, 4 μL 2×FITC-MBM1 peptide (FITC-P-alanine-SARWRFPARPGT-NH2) in assay buffer was added, the microtiter plate centrifuged at 1000 rpm for 1 min and the assay mixtures incubated for 15 min at ambient temperature. The relative amount of menin ⋅FITC-MBM1 complex present in an assay mixture is determined by measuring the homogenous time-resolved fluorescence (HTRF) of the terbium/FITC donor/acceptor fluorphore pair using a BMG Pherastar plate reader (ex. 337 nm/terbium cm. 490 nm/FITC cm. 520 nm) at ambient temperature. The degree of fluorescence resonance energy transfer (the HTRF value) is expressed as the ratio of the fluorescence emission intensities of the FITC and terbium fluorophores (P^m 520 nm//F^em 490 nm). The final concentrations of reagents in the binding assay are 100 pM terbium chelate-labeled menin, 75 nM FITC-MBM1 peptide and 0.5%) DMSO in assay buffer. Dose-response titrations of test compounds are conducted using an 11 point, three-fold serial dilution scheme, starting typically at 25 μM.
Compound potencies were determined by first calculating % inhibition at each compound concentration according to equation 1: % inhibition=((HC−LC)−(HTRF^compound−LC))/(HC−LC))*100 (Eqn 1)
Where LC and HC are the HTRF values of the assay in the presence or absence of a saturating concentration of a compound that competes with FITC-MBM1 for binding to menin, and HTRF^compound is the measured HTRF value in the presence of the test compound. HC and LC HTRF values represent an average of at least 16 replicates per plate.
Where Bottom and Top are the lower and upper asymptotes of the dose-response curve, respectively, IC50 is the concentration of compound that yields 50% inhibition of signal and h is the Hill coefficient.
Preparation of Terbium cryptate labeling of Menin: Menin (a. a. l-610-6×his tag) was labeled with terbium cryptate as follows. 2 mg of Menin was buffer exchanged into 1× phosphate buffered saline. 16 uM Menin was incubated with 4-fold molar excess NHS-terbium cryptate (Cisbio Bioassays, Bedford, Mass.) for 2 hours at room temperature. The labeled protein was purified away from free label by running the reaction over a Superdex 200 Increase 10/300 GL column at 0.75 ml/min. Peak fractions were collected, aliquoted and frozen at −80° C.

As usually defined, the IC50 is the concentration that inhibits the measured activity by half. For `Cc1ccc(CN[C@H]2CCCN(c3ncnc4sc(CC(F)(F)F)cc34)CC2)c(C)c1` (single isomer, unassigned) [Compound 9B], the IC50 in the experiment with MV-4-1 1 cells (MLL-AF4) is 0.9 µM; in experiment [1], 22 nM.
The matching figures for `Cn1cc(CNC2CCCN(c3ncnc4sc(CC(F)(F)F)cc34)CC2)cn1` (single isomer, unassigned) [Compound 11A]: 1.6 µM and 55 nM.
For the molecule `Cn1cncc1CN[C@@H]1CCCN(c2ncnc3sc(CC(F)(F)F)cc23)CC1` (single isomer, unassigned) [Compound 28], the results for the 50% inhibitory concentration (IC50) (in the experiment on MV-4-1 1 cells (MLL-AF4); in experiment [1]) were 3.4 µM and 149 nM, respectively.
`FC(F)(F)Cc1cc2c(N3CCC[C@@H](NCc4cccnc4)CC3)ncnc2s1` (single isomer, unassigned) [Compound 29]: the values for the IC50 (in the experiment with MV-4-1 1 cells (MLL-AF4); in experiment [1]) were 2.1 µM and 40 nM, respectively.
Regarding `FC(F)(F)Cc1cc2c(N3CCC[C@@H](NCc4ccnnc4)CC3)ncnc2s1` (single isomer, unassigned) [Compound 30], the IC50 is 4.45 µM with MV-4-1 1 cells (MLL-AF4) and 186 nM in experiment [1].
Regarding `CC(C)[C@H](N[C@@H]1CCCN(c2ncnc3sc(CC(F)(F)F)cc23)CC1)C1CNC1` (single isomer, unassigned) [Compound 31], the IC50 in the experiment with MV-4-1 1 cells (MLL-AF4) was 1.4 µM; in experiment [1] it was 34 nM.
Take `CC(C)[C@H](NC1CCCN(c2ncnc3sc(CC(F)(F)F)cc23)CC1)C1CNC1` (single isomer, unassigned) [Compound 33]: the half-inhibitory concentration (IC50) in the experiment on MV-4-1 1 cells (MLL-AF4) was 2 µM; in experiment [1], 27 nM.
Taken in the same sequence, the figures for `CC(C)[C@@H](NC1CCCN(c2ncnc3sc(CC(F)(F)F)cc23)CC1)C1CNC1` (single isomer, unassigned) [Compound 34] were 3.2 µM and 216 nM.
As to `CC(C)[C@@H](N[C@H]1CCCN(c2ncnc3sc(CC(F)(F)F)cc23)CC1)C1CNC1` (single isomer, unassigned) [Compound 36], the IC50 was 2.5 µM in the experiment on MV-4-1 1 cells (MLL-AF4) and 170 nM in experiment [1].
Regarding `CN(C)CCN(Cc1ccccc1)[C@@H]1CCCN(c2ncnc3sc(CC(F)(F)F)cc23)CC1` (single isomer, unassigned) [Compound 57A], the IC50 in the experiment on MV-4-1 1 cells (MLL-AF4) came to 2.8 µM; in experiment [1], 194 nM.
As to `CN(C)CCN(Cc1ccccc1)[C@H]1CCCN(c2ncnc3sc(CC(F)(F)F)cc23)CC1` (single isomer, unassigned) [Compound 57B], the IC50 was 4.4 µM in the experiment with MV-4-1 1 cells (MLL-AF4) and 222 nM in experiment [1].
Turning to `Cn1cc(CN(Cc2ccccc2)[C@@H]2CCCN(c3ncnc4sc(CC(F)(F)F)cc34)CC2)cn1` (single isomer, unassigned) [Compound 60A], the IC50 in the experiment on MV-4-1 1 cells (MLL-AF4) came to 5.5 µM; in experiment [1] it was 493 nM.
Taken in the same sequence, the figures for `Cn1cc(CN(Cc2ccccc2)[C@H]2CCCN(c3ncnc4sc(CC(F)(F)F)cc34)CC2)cn1` (single isomer, unassigned) [Compound 60B] were 2.4 µM and 295 nM.
As to `Cn1cc2c(n1)CCC[C@@H]2N[C@@H]1CCCN(c2ncnc3sc(CC(F)(F)F)cc23)CC1` (single isomer, unassigned) [Compound 66B], the IC50 in the experiment on MV-4-1 1 cells (MLL-AF4) came out at 3.8 µM; in experiment [1], 164 nM.
Turning to `C[C@H]1CCN(c2ncnc3sc(CC(F)(F)F)cc23)CC[C@H]1NCc1ccccc1` (single isomer, unassigned) [Compound 68A], the IC50 was 1.9 µM in the experiment on MV-4-1 1 cells (MLL-AF4) and 103 nM in experiment [1].
On to `Fc1ccc(CNC2CCCN(c3ncnc4sc(CC(F)(F)F)cc34)CC2)c(F)c1` (stereo not drawn) [Compound 7], for which the results for the IC50 (with MV-4-1 1 cells (MLL-AF4); in experiment [1]) were 1.6 µM and 55 nM, respectively.
For `Fc1ccccc1CNC1CCCN(c2ncnc3sc(CC(F)(F)F)cc23)CC1` (stereo not drawn) [Compound 8], the figures for the IC50 (in the experiment with MV-4-1 1 cells (MLL-AF4); in experiment [1]) were 1.6 µM and 64 nM, respectively.
Taken in the same sequence, the figures for `Cc1ccc(CNC2CCCN(c3ncnc4sc(CC(F)(F)F)cc34)CC2)c(C)c1` (stereo not drawn) [Compound 9] were 1.4 µM and 36 nM.
With `CNCc1cccc(CNC2CCCN(c3ncnc4sc(CC(F)(F)F)cc34)CC2)c1` (stereo not drawn) [Compound 17], the IC50 with MV-4-1 1 cells (MLL-AF4) came out at 1.3 µM; in experiment [1] it was 33 nM.
With `COc1ccc(C)cc1CNC1CCCN(c2ncnc3sc(CC(F)(F)F)cc23)CC1` (stereo not drawn) [Compound 18], the IC50 was 4.7 µM in the experiment on MV-4-1 1 cells (MLL-AF4) and 563 nM in experiment [1].
Turning to `Cc1ccccc1CNC1CCCN(c2ncnc3sc(CC(F)(F)F)cc23)CC1` (stereo not drawn) [Compound 19], the IC50 with MV-4-1 1 cells (MLL-AF4) worked out at 2 µM; in experiment [1] it was 41 nM.
As to `Fc1cccc(CNC2CCCN(c3ncnc4sc(CC(F)(F)F)cc34)CC2)c1` (stereo not drawn) [Compound 24], the values for the IC50 (with MV-4-1 1 cells (MLL-AF4); in experiment [1]) were 1.2 µM and 53 nM, respectively.
For `FC(F)(F)Cc1cc2c(N3CCCC(OCc4ccccc4)CC3)ncnc2s1` (stereo not drawn) [Compound 44], the IC50 in the experiment with MV-4-1 1 cells (MLL-AF4) amounted to 4.3 µM; in experiment [1] it was 137 nM.
The matching figures for `CNC(=O)c1ccc(CNC2CCCN(c3ncnc4sc(CC(F)(F)F)cc34)CC2)cc1` (stereo not drawn) [Compound 49]: 1.1 µM and 45 nM.
With `OCCN(Cc1ccccc1)C1CCCN(c2ncnc3sc(CC(F)(F)F)cc23)CC1` (stereo not drawn) [Compound 50], the IC50 in the experiment with MV-4-1 1 cells (MLL-AF4) was 2.3 µM; in experiment [1], 185 nM.
`CN(C)CCCN(Cc1ccccc1)C1CCCN(c2ncnc3sc(CC(F)(F)F)cc23)CC1` (stereo not drawn) [Compound 53]: the IC50 in the experiment with MV-4-1 1 cells (MLL-AF4) came to 2.1 µM; in experiment [1], 204 nM.
With `Cn1ncc2c1CCC[C@@H]2N[C@@H]1CCCN(c2ncnc3sc(CC(F)(F)F)cc23)CC1` [Compound 65B], the IC50 is 4.3 µM with MV-4-1 1 cells (MLL-AF4) and 284 nM in experiment [1].
